From the Kinase Knowledgebase extract (Sharma et al. 2016)

These molecules were tested against PIK3CA (human) (UniProt P42336) (assay: Inhibition of PIK3CA Kinase Activity).
Sequence of PIK3CA (human) (P42336 whole entry, looked up): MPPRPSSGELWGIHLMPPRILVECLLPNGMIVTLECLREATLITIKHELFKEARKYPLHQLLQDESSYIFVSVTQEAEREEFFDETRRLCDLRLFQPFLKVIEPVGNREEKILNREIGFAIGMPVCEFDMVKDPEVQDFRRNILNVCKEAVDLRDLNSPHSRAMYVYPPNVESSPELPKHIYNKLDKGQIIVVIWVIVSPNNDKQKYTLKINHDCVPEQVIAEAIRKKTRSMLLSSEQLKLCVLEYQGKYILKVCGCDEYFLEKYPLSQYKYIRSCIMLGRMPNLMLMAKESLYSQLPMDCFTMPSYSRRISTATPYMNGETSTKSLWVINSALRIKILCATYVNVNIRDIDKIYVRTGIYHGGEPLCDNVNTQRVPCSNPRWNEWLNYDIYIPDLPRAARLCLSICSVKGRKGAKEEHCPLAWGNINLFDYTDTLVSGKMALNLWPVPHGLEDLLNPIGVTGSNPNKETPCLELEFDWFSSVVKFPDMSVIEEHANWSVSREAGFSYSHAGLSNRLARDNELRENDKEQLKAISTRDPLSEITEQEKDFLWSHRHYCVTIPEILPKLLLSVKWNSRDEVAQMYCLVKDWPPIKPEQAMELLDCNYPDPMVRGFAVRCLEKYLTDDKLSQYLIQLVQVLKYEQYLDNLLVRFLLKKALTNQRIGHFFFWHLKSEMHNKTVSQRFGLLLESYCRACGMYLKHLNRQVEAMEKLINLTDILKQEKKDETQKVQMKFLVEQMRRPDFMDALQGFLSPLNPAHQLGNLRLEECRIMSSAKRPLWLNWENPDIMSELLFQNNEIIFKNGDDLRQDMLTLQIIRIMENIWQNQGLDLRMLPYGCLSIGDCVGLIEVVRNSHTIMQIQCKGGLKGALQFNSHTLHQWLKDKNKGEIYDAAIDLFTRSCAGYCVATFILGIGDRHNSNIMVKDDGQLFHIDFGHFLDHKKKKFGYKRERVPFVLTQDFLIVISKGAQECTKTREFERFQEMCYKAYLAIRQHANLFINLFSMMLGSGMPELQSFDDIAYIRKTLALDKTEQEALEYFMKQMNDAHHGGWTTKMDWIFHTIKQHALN

Structure (SMILES)	IC50 [nM]
COC(=O)Nc1nc2ccc(-c3ccc4c(c3)CN(c3ncnc5c3CC(C)(C)CC5)CCO4)cc2[nH]1	10 to 50
Cc1c(NC2CCOCC2)ncnc1N1CCOc2ccc(-c3cnc4nc(C5CC5)[nH]c4c3)cc2C1	50 to 250
Cc1nc2ccc(-c3ccc4c(c3)CN(c3ncnc5c(Br)cccc35)CCO4)cc2[nH]1	50 to 250
COc1ccc2c(N3CCOc4ccc(-c5ccc6c(c5)CC(=O)N6)cc4C3)nc(C)nc2c1	250 to 1000
CC1(C)CCc2ncnc(N3CCOc4ccc(-c5cnc(N6CC[C@H](N)C6)c(S(=O)(=O)N6CC[C@H](N)C6)c5)cc4C3)c2C1	250 to 1000
Cc1nc2ccc(-c3ccc4c(c3)CN(c3ncnc(C)c3C(C)c3cccc(F)c3)CCO4)cc2[nH]1 (configuration not stated)	≤ 10
Cc1nc2cc(-c3ccc4c(c3)CN(c3nc(N)nc(C)c3Cc3ccc(F)cc3)CCO4)ccc2[nH]1	≤ 10
COc1ccc2c(N3CCOc4ccc(-c5ccc(N)nc5)cc4C3)nc(C)nc2c1	50 to 250
Cc1nc2cc(-c3ccc4c(c3)CN(c3nc(CCN5CCCC5)nc5c3CC(C)(C)CC5)CCO4)cnc2[nH]1	10 to 50
COc1ccc2c(N3CCOc4ccc(-c5ccc6[nH]cnc6c5)cc4C3)nc(CN(C)C)nc2c1	≤ 10
CCc1ncnc(N2CCOc3ccc(-c4ccc5nc(C)[nH]c5c4)cc3C2)c1Cc1ccccc1	10 to 50
COc1c(OCC2CC2)ccc2c(N3CCOc4ccc(-c5ccc6nc(C)[nH]c6c5)cc4C3)ncnc12	10 to 50
CN(C)Cc1nc2c(c(N3CCOc4ccc(-c5cnc(Cl)c(NS(C)(=O)=O)c5)cc4C3)n1)CC(C)(C)CC2	≤ 10
Cc1nc2cc(-c3ccc4c(c3)CN(c3nc(N)nc(C)c3Cc3ccc(F)cc3)CCO4)cnc2[nH]1	≤ 10
CCN(CC)Cc1nc(C)c(C(C)C)c(N2CCOc3ccc(-c4ccc5nc(C)[nH]c5c4)cc3C2)n1	10 to 50
CC1(C)CCc2ncnc(N3CCOc4ccc(-c5cnc(N)c(S(=O)(=O)NC[C@H]6CCNC6)c5)cc4C3)c2C1	10 to 50
COc1cc2ncnc(N3CCOc4ccc(-c5ccc6nc(C)[nH]c6c5)cc4C3)c2cc1Cl	10 to 50
Cc1ncc(-c2ccc3c(c2)CN(c2ncnc4c2CCC(C)(C)C4)CCO3)s1	250 to 1000
Cc1ccc2ncnc(N3CCOc4ccc(-c5ccc6nc(C)[nH]c6c5)cc4C3)c2c1	10 to 50
Cc1nc2ccc(-c3ccc4c(c3)CN(c3ncnc5ccccc35)CCO4)cc2[nH]1	10 to 50
CCc1c(C)nc(CN(C)C)nc1N1CCOc2ccc(-c3ccc4[nH]c(C)nc4c3)cc2C1	10 to 50
Cc1nc2ccc(-c3ccc4c(c3)CN(c3ncnc5c(Cl)cc(Cl)cc35)CCO4)cc2[nH]1	250 to 1000

Structure (SMILES)	IC50 [nM]
CC(=O)Nc1nc2cc(-c3ccc4c(c3)CN(c3nc(CN(C)C)nc5c3CC(C)(C)CC5)CCO4)cnc2s1	10 to 50
Cc1nc2ncc(-c3ccc4c(c3)CN(c3ncnc5c3CCC(CO)C5)CCO4)cc2[nH]1 (configuration not stated)	10 to 50
CC1(C)CCc2ncnc(N3CCOc4ccc(-c5cnc(N)c(S(=O)(=O)N6CC[C@@H](O)C6)c5)cc4C3)c2C1	10 to 50
CC1(C)CCc2nc(CC#N)nc(N3CCOc4ccc(-c5cnc6sc(N)nc6c5)cc4C3)c2C1	10 to 50
CCC1CCc2ncnc(N3CCOc4ccc(-c5cnc6nc(N)[nH]c6c5)cc4C3)c2C1 (configuration not stated)	≤ 10
CN(C)Cc1nc2c(c(N3CCOc4ccc(-c5ccc6[nH]c(C(F)F)nc6c5)cc4C3)n1)CC(C)(C)CC2	10 to 50
Cc1nc2ccc(-c3ccc4c(c3)CN(c3ccnc(C)c3Cc3ccccc3)CCO4)cc2[nH]1	10 to 50
CC(C)(N)CCNS(=O)(=O)c1cc(-c2ccc3c(c2)CN(c2ncnc4c2CC(C)(C)CC4)CCO3)cnc1N	10 to 50
CC(C)(O)CNS(=O)(=O)c1cc(-c2ccc3c(c2)CN(c2ncnc4c2CC(C)(C)CC4)CCO3)cnc1N	10 to 50
COc1cncc(-c2ccc3c(c2)CN(c2ncnc4c2CC(C)(C)CC4)CCO3)c1	250 to 1000
Cc1nc2ncc(-c3ccc4c(c3)CN(c3ncnc(NC(C)C)c3C)CCO4)cc2[nH]1	10 to 50
COCCOCc1nc2c(c(N3CCOc4ccc(-c5cnc6nc(C)[nH]c6c5)cc4C3)n1)CC(C)(C)CC2	10 to 50
COC1Cc2nc(CN(C)C)nc(N3CCOc4ccc(-c5ccc6scnc6c5)cc4C3)c2CC1(C)C (configuration not stated)	250 to 1000
CCNc1nc2ccc(-c3ccc4c(c3)CN(c3nc(CC)nc5ccccc35)CCO4)cc2[nH]1	10 to 50
CC1(C)CCc2ncnc(N3CCOc4ccc(-c5cnc(N)c(S(=O)(=O)NCC6CCCNC6)c5)cc4C3)c2C1 (configuration not stated)	10 to 50
Cc1ncnc(N2CCOc3ccc(-c4cncs4)cc3C2)c1Cc1ccc(F)cc1	250 to 1000
CN(CCO)S(=O)(=O)c1cc(-c2ccc3c(c2)CN(c2ncnc4c2CC(C)(C)CC4)CCO3)cnc1N	≤ 10
CC1=Cc2ncnc(N3CCOc4ccc(-c5cnc6nc(C)[nH]c6c5)cc4C3)c2CC1(C)C	10 to 50
Cc1nc2cc(-c3ccc4c(c3)CN(c3nc(CN(C)C)ncc3C(C)C)CCO4)ccc2[nH]1	10 to 50
CC1=CC(C)(C)Cc2c1ncnc2N1CCOc2ccc(-c3cnc(N)c(S(=O)(=O)N4CC[C@@H](N)C4)c3)cc2C1	50 to 250
CCNc1nc(N2CCOc3ccc(-c4ccc5nc(NCC)[nH]c5c4)cc3C2)c2ccccc2n1	50 to 250
CN1C[C@@H]2C[C@H]1CN2S(=O)(=O)c1cc(-c2ccc3c(c2)CN(c2ncnc4c2CC(C)(C)CC4)CCO3)cnc1N	50 to 250

Structure (SMILES)	IC50 [nM]
Cc1nc2ccc(-c3ccc4c(c3)CN(c3ncnc5cc(Cl)c(Br)cc35)CCO4)cc2[nH]1	250 to 1000
CCNc1nc2ncc(-c3ccc4c(c3)CN(c3ncnc5c3CC(C)(C)CC5)CCO4)cc2[nH]1	≤ 10
Cc1nc(CN(C)C)nc(N2CCOc3ccc(-c4ccc5[nH]c(C(F)F)nc5c4)cc3C2)c1C(C)C	10 to 50
CN(C)c1nc2ccc(-c3ccc4c(c3)CN(c3ccnc5ccccc35)CCO4)cc2[nH]1	250 to 1000
COc1ccc2c(N3CCOc4ccc(-c5ccc6nc(C)[nH]c6c5)cc4C3)ncnc2c1	≤ 10
CNS(=O)(=O)c1cc(-c2ccc3c(c2)CN(c2ncnc(C)c2Cc2ccc(F)cc2)CCO3)cnc1N	50 to 250
Cc1nc2cc(-c3ccc4c(c3)CN(c3nc(CN(C)C)nc(C)c3C)CCO4)cnc2[nH]1	10 to 50
c1ccc2c(N3CCOc4ccc(-c5cn[nH]c5)cc4C3)ccnc2c1	250 to 1000
CN1CC[C@@H](NS(=O)(=O)c2cc(-c3ccc4c(c3)CN(c3ncnc5c3CC(C)(C)CC5)CCO4)cnc2N)C1	50 to 250
Cc1cc(Br)c2ncnc(N3CCOc4ccc(-c5ccc6nc(C)[nH]c6c5)cc4C3)c2c1	50 to 250
Cn1ccc2cc(-c3ccc4c(c3)CN(c3ccnc5ccccc35)CCO4)cnc21	250 to 1000
Cc1nc2cc(-c3ccc4c(c3)CN(c3nc(CN(C)C)nc(C)c3C(C)C)CCO4)cnc2[nH]1	≤ 10
Cc1nc(C)c(CC2CC2)c(N2CCOc3ccc(-c4cnc5nc(C6CC6)[nH]c5c4)cc3C2)n1	10 to 50
CC[C@H]1CCc2c(nc(C)nc2N2CCOc3ccc(-c4cnc(N)c(S(=O)(=O)N5CCC(C)(N)C5)c4)cc3C2)C1 (some centres not stated)	≤ 10
COc1c(O)ccc2c(N3CCOc4ccc(-c5ccc6nc(C)[nH]c6c5)cc4C3)ncnc12	10 to 50
CC1=CC(C)(C)Cc2c1ncnc2N1CCOc2ccc(-c3cnc(N)c(S(=O)(=O)N[C@@H]4CCN(C)C4)c3)cc2C1	50 to 250
CCNc1nc2ncc(-c3ccc4c(c3)CN(c3nc(C)nc5cc(OC)ccc35)CCO4)cc2[nH]1	≤ 10
Cc1c(NCC2CCN(C)CC2)ncnc1N1CCOc2ccc(-c3cnc4nc(C5CC5)[nH]c4c3)cc2C1	250 to 1000
COc1ccc(-c2ccc3c(c2)CN(c2nc(CN(C)C)nc4c2CC(C)(C)CC4)CCO3)cc1Cl	250 to 1000
CC1(C)CCc2ncnc(N3CCOc4ccc(-c5cnc(N)c(S(=O)(=O)N6CCC(O)C6)c5)cc4C3)c2C1 (configuration not stated)	10 to 50
COc1cc2ncnc(N3CCOc4ccc(-c5cnc6nc(N)[nH]c6c5)cc4C3)c2cc1OC	≤ 10
CC1(C)CCc2ncnc(N3CCOc4ccc(-c5cnc(N)c(S(=O)(=O)N6CC(O)(CO)C6)c5)cc4C3)c2C1	10 to 50

Structure (SMILES)	IC50 [nM]
Nc1ccc(-c2ccc3c(c2)CN(c2ccnc4ccccc24)CCO3)cn1	50 to 250
Cc1ncnc(N2CCOc3ccc(-c4ccc5nc(N)sc5n4)cc3C2)c1Cc1ccc(F)cc1	50 to 250
COc1c(OCc2ccccc2)ccc2c(N3CCOc4ccc(-c5ccc6nc(C)[nH]c6c5)cc4C3)ncnc12	10 to 50
CNCc1nc2ncc(-c3ccc4c(c3)CN(c3ncnc5c3CC(C)(C)CC5)CCO4)cc2[nH]1	50 to 250
COCC1CCc2c(ncnc2N2CCOc3ccc(-c4cnc5nc(C)[nH]c5c4)cc3C2)C1 (configuration not stated)	10 to 50
CC1(C)CCc2ncnc(N3CCOc4ccc(-c5cnc(N)c(NS(C)(=O)=O)c5)cc4C3)c2C1	50 to 250
Cc1c(NC2CCN(C)CC2)ncnc1N1CCOc2ccc(-c3cnc4nc(C5CC5)[nH]c4c3)cc2C1	10 to 50
Cc1c(NCCC2CCCN2C)ncnc1N1CCOc2ccc(-c3cnc4nc(C5CC5)[nH]c4c3)cc2C1 (configuration not stated)	50 to 250
Cc1nc2ccc(-c3ccc4c(c3)CN(c3ncnc5c3CCC(C)C5)CCO4)cc2[nH]1 (configuration not stated)	10 to 50
Cc1nc2ccc(-c3ccc4c(c3)CN(c3ncnc(C)c3C)CCO4)cc2[nH]1	50 to 250
Cc1nc2ncc(-c3ccc4c(c3)CN(c3ncnc(C)c3CC3CC3)CCO4)cc2[nH]1	50 to 250
CC1=CC(C)(C)Cc2c1ncnc2N1CCOc2ccc(-c3cnc4nc(C)[nH]c4c3)cc2C1	10 to 50
Cc1nc2ccc(-c3ccc4c(c3)CN(c3ncnc5c(Cl)cccc35)CCO4)cc2[nH]1	10 to 50
Cc1nc2ccc(-c3ccc4c(c3)CN(c3ccnc5ccccc35)CCO4)cc2[nH]1	10 to 50
Cc1nc(CN(C)C)nc(N2CCOc3ccc(-c4cnc5sc(N)nc5c4)cc3C2)c1C	≤ 10
COc1ccc2c(N3CCOc4ccc(-c5cnc(N)nc5)cc4C3)nc(C)nc2c1	50 to 250
Nc1nc2ncc(-c3ccc4c(c3)CN(c3ncnc5cc(Cl)c(Br)cc35)CCO4)cc2[nH]1	≤ 10
COC1Cc2nc(CN(C)C)nc(N3CCOc4ccc(-c5cnc6nc(C)[nH]c6c5)cc4C3)c2CC1(C)C (configuration not stated)	≤ 10
CCOc1ncc(-c2ccc3c(c2)CN(c2ncnc4c2CC(C)(C)CC4)CCO3)cc1NS(C)(=O)=O	50 to 250
Cc1nc2cc(-c3ccc4c(c3)CN(c3ncnc5c3CC3(CC5)CC3)CCO4)cnc2[nH]1	10 to 50
CC1(C)CCc2ncnc(N3CCOc4ccc(-c5cnc(N)c(S(=O)(=O)NCC6CNC6)c5)cc4C3)c2C1	10 to 50
